Data from paper PMC6934184, “Selective DNA-PKcs inhibition extends the therapeutic index of localized radiotherapy and chemotherapy” (The Journal of Clinical Investigation, 2019).

Biological target: T1, FRK (PTK5) (Homo sapiens, UniProt P42685)
T1 construct: purchased Thermo Fisher Scientific (Life Technologies) SelectScreen
Assay: SelectScreen Z'LYTE
Format: biochemical
Outline: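 Percent values come from Thermo SelectScreen profiling of NU5455, combining activity and binding assays. CSF1R was run in Z'LYTE format at Km app ATP, and CAMK1 in Adapta format with ATP listed at 10.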

T1 sequence (P42685 whole entry): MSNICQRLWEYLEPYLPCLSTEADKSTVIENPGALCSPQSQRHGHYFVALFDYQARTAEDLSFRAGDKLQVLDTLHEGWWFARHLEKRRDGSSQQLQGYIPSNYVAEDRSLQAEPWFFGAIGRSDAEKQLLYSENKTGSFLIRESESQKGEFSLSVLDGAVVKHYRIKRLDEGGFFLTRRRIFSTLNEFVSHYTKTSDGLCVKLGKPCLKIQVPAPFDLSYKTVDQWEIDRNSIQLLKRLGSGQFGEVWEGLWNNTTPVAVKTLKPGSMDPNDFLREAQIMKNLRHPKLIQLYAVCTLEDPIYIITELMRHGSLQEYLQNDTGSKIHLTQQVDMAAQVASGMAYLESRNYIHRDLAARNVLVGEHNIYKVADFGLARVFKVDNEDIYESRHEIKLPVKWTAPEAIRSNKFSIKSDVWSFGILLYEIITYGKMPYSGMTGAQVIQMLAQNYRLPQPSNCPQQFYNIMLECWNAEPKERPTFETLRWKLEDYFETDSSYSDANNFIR

## CN(C(=O)CN1CCOCC1)c1ccc2sc3c(-c4cccc5c(=O)cc(N6CC7CCC(C6)O7)oc45)cccc3c2c1 [NU5455]
  inhibition at 1 µM: 3.4%
